Source: patent EP4201923A1, “5-SUBSTITUTED 2,3-DIHYDROPYRIDIN-4-ONES AND PROCESS FOR PREPARING THE SAME” (Karl-Franzens-Universität Graz, priority 2021, dated 2023)

What was measured:
[1] = system: human CCRF-CEM leukemia cells; assay: Anticancer activity by cytotoxicity to human CCRF-CEM leukemia cells (XTT colorimetric cell viability); format: cell-based; conditions: solvent control DMSO 0.1 %
Procedure: Assays were performed using an established cancer cell line, human CCRF-CEM leukemia cells and cell viability determined as described above with a colorimetric assay using the tetrazolium salt XTT as reported (Moshin N et al. Monatshefte für Chemie 2018, 149, 801-812). The anticancer drug vinblastine, the solvent DMSO and the untreated cells are used as control. The compounds of examples 1 to 8 were investigated in concentrations of 5 µM and 50 µM. Table 2: Results for anticancer activity against CCRF-CEM cells expressed as cell metabolic activity in % of the solvent control The results are expressed as cell metabolic activity in % of the solvent control. […] Thus, the compounds of the present invention show a substantial anticancer activity.

[2] = system: MRC-5 cells; assay: Cytotoxicity assay using MRC-5 cells (XTT colorimetric cell viability); format: cell-based, human; conditions: solvent control DMSO 0.1 %
Text: The results are expressed as cell metabolic activity in % of the solvent control.

[3] = system: Pseudomonas fluorescens; assay: Antimicrobial activity, drop plate method assay; format: cell-based; design: key: high activity (++); medium activity (+); low activity (±); no activity(-); conditions: 10 µl of 1 mg/ml in DMSO dropped on seeded agar plate; read after approximately 10-16 h
Procedure: (§1) A drop plate method assay (Alajlani M et al. Chromatographia 2016, 79, 1527-1532.) with modification was performed to detect the antimicrobial activity against several bacteria strains. Investigated compounds (compounds of examples 1-7, 9) were dissolved in DMSO to a concentration of 1 mg/ml. Using sterile micropipette 10 µl of each compound was directly but gently dropped over seeded agar plate with test organism. The liquid was allowed to diffuse before the plate was inverted and incubated. The growth conditions for every strain were considered. The results were noted when a lawn of the indicator organism appeared on the plate (approximately 10-16 h). The magnitude of activity was noted as high activity (++), medium activity (+), low activity (±) and no activity(-). Not determined data are indicated with n.d. Table 3: Antimicrobial activities of compounds_were detected over the test organisms

[4] = system: Escherichia coli; assay: Antimicrobial activity, drop plate method assay; format: cell-based; design: key: high activity (++); medium activity (+); low activity (±); no activity(-); conditions: 10 µl of 1 mg/ml in DMSO dropped on seeded agar plate; read after approximately 10-16 h
Procedure: as §1

[5] = system: Micrococcus luteus; assay: Antimicrobial activity, drop plate method assay; format: cell-based; design: key: high activity (++); medium activity (+); low activity (±); no activity(-); conditions: 10 µl of 1 mg/ml in DMSO dropped on seeded agar plate; read after approximately 10-16 h
Procedure: as §1

[6] = system: Serratia sp; assay: Antimicrobial activity, drop plate method assay; format: cell-based; design: key: high activity (++); medium activity (+); low activity (±); no activity(-); conditions: 10 µl of 1 mg/ml in DMSO dropped on seeded agar plate; read after approximately 10-16 h
Procedure: as §1

CC1(C)CC(=O)C(C(c2ccccc2)N2CCCC2)=CN1 (racemic) [Example 1, (RS)-2,3-Dihydro-2,2-dimethyl-5-(phenyl(pyrrolidin-1-yl)methyl)pyridin-4(1H)-one]
cell metabolic activity in % of the solvent control, mean ([1]; compound 5 µM): 88.69% | cell metabolic activity in % of the solvent control, mean ([1]; compound 50 µM): 9.02% | cell metabolic activity in % of the solvent control, mean ([2]; compound 5 µM): 107.18% | cell metabolic activity in % of the solvent control, mean ([2]; compound 50 µM): 87.86% | Antimicrobial activity, Pseudomonas fluorescens [3]: + | Antimicrobial activity, Escherichia coli [4]: + | Antimicrobial activity, Micrococcus luteus [5]: + | Antimicrobial activity, Serratia sp [6]: ±

CC1(C)CC(=O)C(C(c2ccccc2)N2CCCCC2)=CN1 (racemic) [Example 2, (RS)-2,3-Dihydro-2,2-dimethyl-5-(phenyl(piperidin-1-yl)methyl)pyridin-4(1H)-one]
cell metabolic activity in % of the solvent control, mean ([1]; compound 5 µM): 88.18% | cell metabolic activity in % of the solvent control, mean ([1]; compound 50 µM): 8.75% | cell metabolic activity in % of the solvent control, mean ([2]; compound 5 µM): 108.05% | cell metabolic activity in % of the solvent control, mean ([2]; compound 50 µM): 82.27% | Antimicrobial activity, Pseudomonas fluorescens [3]: + | Antimicrobial activity, Escherichia coli [4]: + | Antimicrobial activity, Micrococcus luteus [5]: + | Antimicrobial activity, Serratia sp [6]: ±

CC1(C)CC(=O)C(C(c2ccccc2)N2CCOCC2)=CN1 (racemic) [Example 3, (RS)-2,3-Dihydro-2,2-dimethyl-5-(phenyl(morpholin-1-yl)methyl)pyridin-4(1H)-one]
cell metabolic activity in % of the solvent control, mean ([1]; compound 5 µM): 93.13% | cell metabolic activity in % of the solvent control, mean ([1]; compound 50 µM): 10.98% | cell metabolic activity in % of the solvent control, mean ([2]; compound 5 µM): 110.88% | cell metabolic activity in % of the solvent control, mean ([2]; compound 50 µM): 84.05% | Antimicrobial activity, Pseudomonas fluorescens [3]: + | Antimicrobial activity, Escherichia coli [4]: + | Antimicrobial activity, Micrococcus luteus [5]: ++ | Antimicrobial activity, Serratia sp [6]: ±

CC1(C)CC(=O)C(C(c2ccc(F)cc2)N2CCCC2)=CN1 (racemic) [Example 4, (RS)-2,3-Dihydro-2,2-dimethyl-5-((4-fluorphenyl)-(pyrrolidin-1-yl)methyl)pyridin-4(1H)-one]
cell metabolic activity in % of the solvent control, mean ([1]; compound 5 µM): 88.03% | cell metabolic activity in % of the solvent control, mean ([1]; compound 50 µM): 8.82% | cell metabolic activity in % of the solvent control, mean ([2]; compound 5 µM): 105.92% | cell metabolic activity in % of the solvent control, mean ([2]; compound 50 µM): 90.99% | Antimicrobial activity, Pseudomonas fluorescens [3]: + | Antimicrobial activity, Escherichia coli [4]: ++ | Antimicrobial activity, Micrococcus luteus [5]: + | Antimicrobial activity, Serratia sp [6]: +

CC(C)c1ccc(C(C2=CNC(C)(C)CC2=O)N2CCCC2)cc1 (racemic) [Example 5, (RS)-2,3-Dihydro-2,2-dimethyl-5-((4-isopropylphenyl)-(pyrrolidin-1-yl)methyl)pyridin-4(1H)-one]
cell metabolic activity in % of the solvent control, mean ([1]; compound 5 µM): 75.36% | cell metabolic activity in % of the solvent control, mean ([1]; compound 50 µM): 8.72% | cell metabolic activity in % of the solvent control, mean ([2]; compound 5 µM): 104.11% | cell metabolic activity in % of the solvent control, mean ([2]; compound 50 µM): 42.19% | Antimicrobial activity, Pseudomonas fluorescens [3]: ++ | Antimicrobial activity, Escherichia coli [4]: + | Antimicrobial activity, Serratia sp [6]: ±

CC1(C)CC(=O)C(C(c2ccc(F)cc2)N2CCOCC2)=CN1 (racemic) [Example 6, (RS)-2,3-Dihydro-2,2-dimethyl-5-((4-fluorphenyl)(morpholin-1-yl)methyl)pyridin-4 (1H) -one]
cell metabolic activity in % of the solvent control, mean ([1]; compound 5 µM): 87.71% | cell metabolic activity in % of the solvent control, mean ([1]; compound 50 µM): 8.78% | cell metabolic activity in % of the solvent control, mean ([2]; compound 5 µM): 105.36% | cell metabolic activity in % of the solvent control, mean ([2]; compound 50 µM): 89.35% | Antimicrobial activity, Pseudomonas fluorescens [3]: ++ | Antimicrobial activity, Escherichia coli [4]: + | Antimicrobial activity, Serratia sp [6]: ±

Cc1ccc(C(C2=CNC(C)(C)CC2=O)N2CCCC2)cc1 (racemic) [Example 7, (RS)-2,3-Dihydro-2,2-dimethyl-5-((4-methylphenyl)-(pyrrolidin-1-yl)methyl)pyridin-4(1H)-one]
cell metabolic activity in % of the solvent control, mean ([1]; compound 5 µM): 87.47% | cell metabolic activity in % of the solvent control, mean ([1]; compound 50 µM): 8.52% | cell metabolic activity in % of the solvent control, mean ([2]; compound 5 µM): 100.07% | cell metabolic activity in % of the solvent control, mean ([2]; compound 50 µM): 88.41% | Antimicrobial activity, Pseudomonas fluorescens [3]: ++ | Antimicrobial activity, Escherichia coli [4]: + | Antimicrobial activity, Serratia sp [6]: ±

CC1(C)CC(=O)C(C(c2ccccc2C(F)(F)F)N2CCCC2)=CN1 (racemic) [Example 8, (RS)-2,3-Dihydro-2,2-dimethyl-5-((pyrrolidin-1-yl)-(2-trifluormethylphenyl)methyl)pyridin-4(1H)-one]
cell metabolic activity in % of the solvent control, mean ([1]; compound 5 µM): 52.06% | cell metabolic activity in % of the solvent control, mean ([1]; compound 50 µM): 8.46% | cell metabolic activity in % of the solvent control, mean ([2]; compound 5 µM): 103.65% | cell metabolic activity in % of the solvent control, mean ([2]; compound 50 µM): 67.08%

CC1(C)CC(=O)C(C(c2ccncc2)N2CCCC2)=CN1 (racemic) [Example 9, (RS)-2,3-Dihydro-2,2-dimethyl-5-((4-pyridyl)-(pyrrolidin-1-yl)methyl)pyridin-4(1H)-one]
Antimicrobial activity, Escherichia coli [4]: + | Antimicrobial activity, Micrococcus luteus [5]: + | Antimicrobial activity, Serratia sp [6]: ±

CC[C@]1(O)C[C@@H]2CN(CCc3c([nH]c4ccccc34)[C@@](C(=O)OC)(c3cc4c(cc3OC)N(C)[C@H]3[C@@](O)(C(=O)OC)[C@H](OC(C)=O)[C@]5(CC)C=CCN6CC[C@]43[C@@H]65)C2)C1 [Vinblastine, vinblastine, reference compound]
cell metabolic activity in % of the solvent control, mean ([1]; control substance at 100 nM): 9.06% | cell metabolic activity in % of the solvent control, mean ([2]; control substance at 100 nM): 51.88%
